From patent US20220049219A1, “AUTOMATED GENERATION AND ANALYSIS OF ORGANOIDS” (Max-Planck-Gesellschaft zur Förderung der Wissenschaften …, priority 2018, published 2022) come the findings set out here.

The test concerns automated midbrain organoids (AMOs). Nature of the test: 3D toxicology assay: cCasp3/Sox2 whole mount immunostaining and high content imaging of G418-treated organoids. The class given is cell-based, human. Conditions: AMOs treated for 4 days starting at day 50 of culture; 0-1000 μg/mL; cCasp3+ cells normalized by aggregate area. The procedure:
In order to analyze protein expression in 3D in a HTS-compatible manner, we adapted a whole mount staining protocol based on Lee et al. ACT-PRESTO: Rapid and consistent tissue 579 clearing and labeling method for 3-dimensional (3D) imaging. Sci Rep 6, 18631 (2016) for organoids and optimized it for use in an automated liquid handling system. After fixation with 4% PFA (VWR) for 10-15 minutes, we stained the organoids with primary and secondary antibodies (Alexa Fluor secondary antibodies, Thermo Fisher) for 6 days each. We diluted the antibodies in a blocking and permeabilization solution (6% BSA, 0.5% Triton-X 100 (Roth), 0.1% (w/v) sodium azide (Sigma-Aldrich) in PBS (Sigma-Aldrich)) and renewed it every 2 days. Between primary and secondary antibody incubation as well as after the staining procedure we washed the organoids 5 times for 1 h with 0.1% Triton X-100 in PBS. […]
After staining and clearing, we achieved uniform aggregate positioning within the wells by tilting the plates off the horizontal plane at 60 degrees for 1 minute. Image acquisition was carried out in an Operetta high content imager (Perkin Elmer) and images were analyzed in Harmony 4.1 software. […] We excluded image artifacts, small dust particles, and overlapping nuclei by omitting nuclei brighter than 6000 abu and larger than 70 μm2 from further quantification. […]

In the case of `CN[C@@H]1[C@@H](O)[C@@H](O[C@@H]2[C@@H](O)[C@H](O[C@H]3O[C@H]([C@@H](C)O)[C@@H](O)[C@H](O)[C@H]3N)[C@@H](N)C[C@H]2N)OC[C@]1(C)O` [G418], the “IC50 from dose-response curve of number of apoptotic cCasp3+ cells against logarithmic drug concentration” value worked out at 339 μg/mL.
